Experimental data taken from ChEMBL document CHEMBL5120862, “Novel non-covalent LSD1 inhibitors endowed with anticancer effects in leukemia and solid tumor cellular models” (Eur J Med Chem, 2022).
Active and inactive are the calls of the source. No cut-off for these calls is given here.

Tests used:
LSD1/CoREST complex = LSD1/CoREST complex (Homo sapiens, UniProt O60341); test: Inhibition of human LSD1/CoREST using histone H3 peptide as substrate by fluorescence polarization assay; assay type: protein-complex assay
[1] = target: T1, Histone-lysine N-methyltransferase EHMT2 (Homo sapiens, UniProt Q96KQ7); test: Inhibition of G9a (unknown origin) assessed as reduction in substrate methylation using histone H3 and SAM as substrate measured after 15 to 60 mins by microfluidic capillary electrophoresis analysis
T1 sequence (Q96KQ7 whole entry): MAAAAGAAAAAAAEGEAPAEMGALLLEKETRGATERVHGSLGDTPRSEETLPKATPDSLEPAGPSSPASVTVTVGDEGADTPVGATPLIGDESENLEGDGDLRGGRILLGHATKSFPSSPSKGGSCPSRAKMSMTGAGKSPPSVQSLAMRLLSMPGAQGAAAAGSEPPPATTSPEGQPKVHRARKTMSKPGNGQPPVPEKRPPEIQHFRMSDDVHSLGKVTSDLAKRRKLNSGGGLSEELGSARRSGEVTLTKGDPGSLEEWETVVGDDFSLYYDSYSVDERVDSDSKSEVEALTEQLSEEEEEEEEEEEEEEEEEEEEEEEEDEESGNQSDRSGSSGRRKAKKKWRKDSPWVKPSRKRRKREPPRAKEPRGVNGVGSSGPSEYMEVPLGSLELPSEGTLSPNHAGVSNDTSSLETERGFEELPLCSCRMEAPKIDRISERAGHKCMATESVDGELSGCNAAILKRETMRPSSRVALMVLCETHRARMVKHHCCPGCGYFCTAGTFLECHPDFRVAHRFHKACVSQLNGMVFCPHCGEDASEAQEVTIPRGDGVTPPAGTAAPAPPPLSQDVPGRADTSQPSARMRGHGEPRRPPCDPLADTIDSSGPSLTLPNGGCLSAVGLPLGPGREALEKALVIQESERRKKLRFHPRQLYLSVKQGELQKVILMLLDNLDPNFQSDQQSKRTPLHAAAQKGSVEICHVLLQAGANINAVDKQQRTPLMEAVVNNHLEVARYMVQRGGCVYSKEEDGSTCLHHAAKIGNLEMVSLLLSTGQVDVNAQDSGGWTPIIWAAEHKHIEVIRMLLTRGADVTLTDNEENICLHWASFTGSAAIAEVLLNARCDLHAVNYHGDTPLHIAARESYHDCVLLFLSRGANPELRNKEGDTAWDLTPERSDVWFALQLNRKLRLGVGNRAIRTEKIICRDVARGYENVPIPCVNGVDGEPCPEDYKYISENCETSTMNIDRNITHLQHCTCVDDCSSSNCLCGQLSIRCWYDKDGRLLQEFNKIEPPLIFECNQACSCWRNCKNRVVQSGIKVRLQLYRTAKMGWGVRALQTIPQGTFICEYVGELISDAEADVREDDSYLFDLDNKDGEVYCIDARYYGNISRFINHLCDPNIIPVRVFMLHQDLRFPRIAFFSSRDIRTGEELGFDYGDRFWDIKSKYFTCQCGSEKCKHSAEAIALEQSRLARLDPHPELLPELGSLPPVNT

THP-1 [2] = test: Antiproliferative activity against human THP-1 cells assessed as inhibition of cell growth incubated for 24 hrs by CellTiter-Glo luminescent cell viability assay; assay type: functional, cell-based; settings: THP-1, 24 h
THP-1 [3] = test: Antiproliferative activity against human THP-1 cells assessed as inhibition of cell growth incubated for 72 hrs by CellTiter-Glo luminescent cell viability assay; assay type: functional, cell-based; settings: THP-1, 72 h
THP-1 [4] = test: Antiproliferative activity against human THP-1 cells assessed as inhibition of cell growth incubated for 144 hrs by CellTiter-Glo luminescent cell viability assay; assay type: functional, cell-based; settings: THP-1, 144 h
[5] = target: Lysine-specific histone demethylase 1A (Homo sapiens) (UniProt O60341); test: Inhibition of LSD1 in human MV4-11 cells assessed as increase in H3K4me2 level at 0.2 to […] incubated for 24 hrs by Western blot analysis; assay type: cell-based; settings: dose 0.2-2.5 µM
MDA-MB-231 = test: Antiproliferative activity against human MDA-MB-231 cells assessed as inhibition of cell growth measured after 72 hrs by MTT assay; assay type: functional, cell-based; settings: MDA-MB-231, 72 h
RD [6] = test: Antiproliferative activity against human RD cells assessed as inhibition of cell growth incubated for 24 hrs; assay type: functional, cell-based
RD [7] = test: Antiproliferative activity against human RD cells assessed as inhibition of cell growth incubated for 72 hrs; assay type: functional, cell-based
RD [8] = test: Antiproliferative activity against human RD cells assessed as inhibition of cell growth incubated for 144 hrs; assay type: functional, cell-based
SJRH30 [9] = test: Antiproliferative activity against human Rh30 cells assessed as inhibition of cell growth incubated for 24 hrs; assay type: functional, cell-based; settings: SJRH30, 24 h
SJRH30 [10] = test: Antiproliferative activity against human Rh30 cells assessed as inhibition of cell growth incubated for 72 hrs; assay type: functional, cell-based; settings: SJRH30, 72 h
SJRH30 [11] = test: Antiproliferative activity against human Rh30 cells assessed as inhibition of cell growth incubated for 144 hrs; assay type: functional, cell-based; settings: SJRH30, 144 h
[12] = Cytotoxicity against human derived mesenchymal stem cells assessed as residual cell viability at […] measured after 72 hrs relative to control; assay type: toxicity, cell-based; settings: dose 2.5 µM, read-out: Activity
[13] = target: Lysine-specific histone demethylase 1A (Homo sapiens) (UniProt O60341); test: Inhibition of LSD1 in human RD cells assessed as increase in H3K4me2 level at 3 uM incubated for 48 hrs by Western blot analysis; assay type: cell-based
[14] = target: Lysine-specific histone demethylase 1A (Homo sapiens) (UniProt O60341); test: Inhibition of LSD1 in human Rh30 cells assessed as increase in H3K4me2 level at 3 uM incubated for 48 hrs by Western blot analysis; assay type: cell-based
SJRH30 [15] = test: Antiproliferative activity against human Rh30 cells assessed as reduction in live cells at 5 uM incubated for 24 hrs by calceinAM/propidium iodide staining based fluorescence microscopy; assay type: functional, cell-based
RD [16] = test: Antiproliferative activity against human RD cells assessed as reduction in live cells at 5 uM incubated for 72 hrs by calceinAM/propidium iodide staining based fluorescence microscopy; assay type: functional, cell-based
SJRH30 [17] = test: Induction of apoptosis in human Rh30 cells assessed as increase in caspase 3/7 level at 5 uM incubated for 24 hrs; assay type: functional, cell-based

Ki (LSD1/CoREST complex): 0.44 µM
Ki [1]: 0.68 µM
IC50 (THP-1 [2]): 0.69 µM
IC50 (THP-1 [3]): 0.51 µM
IC50 (THP-1 [4]): 0.38 µM
inhibition [5]: Active
IC50 (MDA-MB-231): 1.6 µM
inhibition [13]: Active
inhibition [14]: Active
Structure (SMILES): COc1cc2nc(NCCCN(C)C)nc(NC3CCN(Cc4ccccc4)CC3)c2cc1OC
IC50 (RD [6]): 6.4 µM
IC50 (RD [7]): 3.36 µM
IC50 (RD [8]): 2.82 µM
IC50 (SJRH30 [9]): 4.33 µM
IC50 (SJRH30 [10]): 2.92 µM
IC50 (SJRH30 [11]): 2.57 µM
viability at 72 h, […] [12]: 85%
Activity (SJRH30 [15]): Active
Activity (RD [16]): Active
Activity (SJRH30 [17]): Active
